Data taken from paper PMC12291913 (Antibiotics, 2025).
Where “and” joins values, the source holds several entries; their conditions need not be identical. Equal values may be shown once.

System: M. avium clinical isolate Cl-A-2 (GyrA Asp95Tyr)
Assay type: cell-based, M. avium subsp. hominissuis

## Cc1c(N2CC(N(C)C)C2)c(F)cc2c(=O)c(C(=O)O)cn(-c3nc(N)c(F)cc3F)c12 [WQ-3810]
  MIC of FQ with EMB: 1 mg/L and 0.5 mg/L
  MIC of FQ with INH: 0.5 mg/L and 0.25 mg/L
  mean FICIm: 0.53 and 0.66
